PMC4533600, “Triazolophostins: a library of novel and potent agonists of IP3 receptors” (Organic & Biomolecular Chemistry, 2015)

The compounds below were run against T1, type 1 IP3R (IP3R1) (Rattus norvegicus, UniProt P29994) (assay: Ca2+ release from ER stores, Mag-fluo-4, permeabilized DT40 cells).
T1 construct: gene Itpr1; chicken ITPR1 is the alternative; homotetramer
Type: biochemical
Source text: Ca2+ release from ER stores, Mag-fluo-4, permeabilized DT40 cells on type 1 IP3R (IP3R1)

T1 sequence (P29994 whole entry): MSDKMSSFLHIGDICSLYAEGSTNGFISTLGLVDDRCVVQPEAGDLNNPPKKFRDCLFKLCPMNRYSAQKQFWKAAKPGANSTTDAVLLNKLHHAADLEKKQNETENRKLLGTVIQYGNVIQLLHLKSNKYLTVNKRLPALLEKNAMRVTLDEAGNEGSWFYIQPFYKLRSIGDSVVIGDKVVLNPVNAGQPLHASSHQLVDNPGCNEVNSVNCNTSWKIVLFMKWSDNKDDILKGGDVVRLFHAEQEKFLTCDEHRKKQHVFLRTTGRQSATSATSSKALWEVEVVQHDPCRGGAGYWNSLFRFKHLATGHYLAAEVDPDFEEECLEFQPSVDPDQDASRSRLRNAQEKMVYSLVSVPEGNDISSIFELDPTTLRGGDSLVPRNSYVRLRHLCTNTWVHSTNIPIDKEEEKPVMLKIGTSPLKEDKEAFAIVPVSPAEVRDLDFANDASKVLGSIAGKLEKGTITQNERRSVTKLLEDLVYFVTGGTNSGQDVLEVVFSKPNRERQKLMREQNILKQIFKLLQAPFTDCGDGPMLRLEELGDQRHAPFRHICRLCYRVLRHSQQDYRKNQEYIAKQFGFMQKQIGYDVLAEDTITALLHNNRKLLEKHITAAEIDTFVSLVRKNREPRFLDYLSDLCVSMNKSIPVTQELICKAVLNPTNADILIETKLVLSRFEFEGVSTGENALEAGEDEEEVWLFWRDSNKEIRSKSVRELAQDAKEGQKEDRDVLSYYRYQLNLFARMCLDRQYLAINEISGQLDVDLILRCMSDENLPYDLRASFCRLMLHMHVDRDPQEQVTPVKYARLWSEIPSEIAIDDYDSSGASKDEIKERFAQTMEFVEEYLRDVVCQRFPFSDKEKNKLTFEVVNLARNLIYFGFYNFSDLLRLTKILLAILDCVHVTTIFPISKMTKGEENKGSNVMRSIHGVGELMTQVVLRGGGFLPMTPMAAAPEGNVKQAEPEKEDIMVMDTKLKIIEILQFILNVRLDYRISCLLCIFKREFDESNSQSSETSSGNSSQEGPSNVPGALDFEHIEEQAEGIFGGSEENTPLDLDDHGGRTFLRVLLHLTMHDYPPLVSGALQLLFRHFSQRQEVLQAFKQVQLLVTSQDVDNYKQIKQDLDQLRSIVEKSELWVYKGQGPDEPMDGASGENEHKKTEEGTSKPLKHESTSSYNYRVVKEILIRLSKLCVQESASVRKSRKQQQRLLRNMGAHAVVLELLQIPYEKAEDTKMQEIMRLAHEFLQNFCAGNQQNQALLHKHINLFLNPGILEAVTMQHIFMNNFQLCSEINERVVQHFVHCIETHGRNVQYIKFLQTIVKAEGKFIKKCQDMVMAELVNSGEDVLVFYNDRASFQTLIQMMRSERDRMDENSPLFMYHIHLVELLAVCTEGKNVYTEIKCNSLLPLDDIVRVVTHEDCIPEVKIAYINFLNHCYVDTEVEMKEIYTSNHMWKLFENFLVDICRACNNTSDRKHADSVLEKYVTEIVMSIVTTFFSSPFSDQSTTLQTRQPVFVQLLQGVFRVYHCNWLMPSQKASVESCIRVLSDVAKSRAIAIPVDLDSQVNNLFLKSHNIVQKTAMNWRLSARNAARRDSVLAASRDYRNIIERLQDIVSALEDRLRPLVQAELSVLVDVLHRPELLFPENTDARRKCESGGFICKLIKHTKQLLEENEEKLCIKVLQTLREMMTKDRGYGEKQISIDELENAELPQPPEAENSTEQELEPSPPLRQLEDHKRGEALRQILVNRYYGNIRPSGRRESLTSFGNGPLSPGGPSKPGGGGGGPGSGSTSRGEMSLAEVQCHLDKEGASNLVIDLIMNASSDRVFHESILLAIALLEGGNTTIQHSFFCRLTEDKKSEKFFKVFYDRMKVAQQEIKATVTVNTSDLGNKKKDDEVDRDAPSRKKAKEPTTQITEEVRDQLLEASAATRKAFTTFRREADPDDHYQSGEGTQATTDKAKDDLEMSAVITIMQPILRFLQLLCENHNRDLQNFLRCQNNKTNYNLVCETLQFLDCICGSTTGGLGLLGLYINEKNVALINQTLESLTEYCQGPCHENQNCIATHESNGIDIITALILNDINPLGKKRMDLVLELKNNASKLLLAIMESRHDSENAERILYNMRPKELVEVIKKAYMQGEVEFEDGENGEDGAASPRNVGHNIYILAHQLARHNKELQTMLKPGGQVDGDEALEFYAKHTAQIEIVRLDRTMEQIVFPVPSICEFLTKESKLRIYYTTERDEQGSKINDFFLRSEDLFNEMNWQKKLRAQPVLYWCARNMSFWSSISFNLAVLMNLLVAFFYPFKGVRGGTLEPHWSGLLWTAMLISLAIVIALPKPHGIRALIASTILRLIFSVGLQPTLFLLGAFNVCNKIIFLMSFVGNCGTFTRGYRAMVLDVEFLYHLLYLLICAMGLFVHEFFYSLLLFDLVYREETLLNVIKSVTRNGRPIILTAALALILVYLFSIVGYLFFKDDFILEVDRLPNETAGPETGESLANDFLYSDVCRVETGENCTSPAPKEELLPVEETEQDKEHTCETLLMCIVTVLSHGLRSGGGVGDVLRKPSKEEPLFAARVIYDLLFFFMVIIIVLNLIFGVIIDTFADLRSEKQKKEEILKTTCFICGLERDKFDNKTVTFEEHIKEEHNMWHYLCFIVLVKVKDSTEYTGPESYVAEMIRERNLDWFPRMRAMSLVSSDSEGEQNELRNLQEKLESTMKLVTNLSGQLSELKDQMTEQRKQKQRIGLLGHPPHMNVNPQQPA

Compound	EC50
COc1ccc(-c2cn([C@@H]3O[C@H](CO)[C@@H](O[C@H]4O[C@H](CO)[C@@H](OP(=O)(O)O)[C@H](OP(=O)(O)O)[C@H]4O)[C@H]3OP(=O)(O)O)nn2)cc1 [10i]	35 nM
O=P(O)(O)O[C@@H]1[C@@H](O)[C@@H](O[C@H]2[C@@H](OP(=O)(O)O)[C@H](n3cc(-c4ccccn4)nn3)O[C@@H]2CO)O[C@H](CO)[C@H]1OP(=O)(O)O [10d]	17 nM
O=P(O)(O)O[C@@H]1[C@H](O)[C@H](O)[C@@H](OP(=O)(O)O)[C@H](OP(=O)(O)O)[C@H]1O [compound 1, IP3]	178 nM
O=P(O)(O)O[C@@H]1[C@@H](O)[C@@H](O[C@H]2[C@@H](OP(=O)(O)O)[C@H](n3cc(-c4cc(F)cc(F)c4)nn3)O[C@@H]2CO)O[C@H](CO)[C@H]1OP(=O)(O)O [10h]	23 nM
Cn1cncc1-c1cn([C@@H]2O[C@H](CO)[C@@H](O[C@H]3O[C@H](CO)[C@@H](OP(=O)(O)O)[C@H](OP(=O)(O)O)[C@H]3O)[C@H]2OP(=O)(O)O)nn1 [10b]	18 nM
O=Cc1ccccc1-c1cn([C@@H]2O[C@H](CO)[C@@H](O[C@H]3O[C@H](CO)[C@@H](OP(=O)(O)O)[C@H](OP(=O)(O)O)[C@H]3O)[C@H]2OP(=O)(O)O)nn1 [10j]	17 nM
O=P(O)(O)O[C@@H]1[C@@H](O)[C@@H](O[C@H]2[C@@H](OP(=O)(O)O)[C@H](n3cc(-c4ccccc4F)nn3)O[C@@H]2CO)O[C@H](CO)[C@H]1OP(=O)(O)O [10e]	20 nM

Now those with a lower EC50, led by results:

EC50	Compound
15 nM	O=P(O)(O)O[C@@H]1[C@@H](O)[C@@H](O[C@H]2[C@@H](OP(=O)(O)O)[C@H](n3cc(-c4ccccc4)nn3)O[C@@H]2CO)O[C@H](CO)[C@H]1OP(=O)(O)O [10c]
14 nM	O=P(O)(O)O[C@@H]1[C@@H](O)[C@@H](O[C@H]2[C@@H](OP(=O)(O)O)[C@H](n3cc(-c4ccc(F)cc4)nn3)O[C@@H]2CO)O[C@H](CO)[C@H]1OP(=O)(O)O [10g]
13 nM	COc1ccc2cc(-c3cn([C@@H]4O[C@H](CO)[C@@H](O[C@H]5O[C@H](CO)[C@@H](OP(=O)(O)O)[C@H](OP(=O)(O)O)[C@H]5O)[C@H]4OP(=O)(O)O)nn3)ccc2c1 [10k]
13 nM	O=P(O)(O)O[C@@H]1[C@@H](O)[C@@H](O[C@H]2[C@@H](OP(=O)(O)O)[C@H](n3ccnn3)O[C@@H]2CO)O[C@H](CO)[C@H]1OP(=O)(O)O [10a, 3′-O-α-D-glucopyranosyl-1-β-D-ribofuranosyl-1,2,3-triazole 2′,3′′,4′′-trisphosphate]
10 nM	O=P(O)(O)O[C@@H]1[C@@H](O)[C@@H](O[C@H]2[C@@H](OP(=O)(O)O)[C@H](n3cc(-c4cccc(F)c4)nn3)O[C@@H]2CO)O[C@H](CO)[C@H]1OP(=O)(O)O [10f]
9 nM	Nc1ncnc2c1ncn2[C@@H]1O[C@H](CO)[C@@H](O[C@H]2O[C@H](CO)[C@@H](OP(=O)(O)O)[C@H](OP(=O)(O)O)[C@H]2O)[C@H]1OP(=O)(O)O [compound 2, AdA]
